Assay results as given in patent publication US10259847B2, “Beta-hairpin peptidomimetics” (POLYPHOR AG, priority 2014, dated 2019).
Where a SMILES comes first, the peptide text is derived from it. Bridges are numbered along the chain shown (N, C = ends). [ ]: non-standard residue; d: D form. Tle = CC(C)(C)[C@H](N)C(=O)O; dDab = NCC[C@@H](N)C(=O)O; Orn = NCCC[C@H](N)C(=O)O; Dab = NCC[C@H](N)C(=O)O; dAze = O=C(O)[C@H]1CCN1; Dap = NC[C@H](N)C(=O)O

Tests used:
Format in all cases: cell-based
[1] = system: human red blood cells (hRBC); assay: Hemolysis of human red blood cells; conditions: red cells of human, 1 h, 100
Experimental: (§1) Stock solutions were kept at +4° C., light protected.
Percent hemolysis was calculated as follows: (OD540peptide/OD540H2O)×100%.

[2] = system: Klebsiella pneumoniae ATCC 13883; conditions: ATCC 13883
Experimental: as §1
(§2) The selective antimicrobial activities of the peptides were determined in 96-well plates (Greiner, polystyrene) by the standard NCCLS broth microdilution method (National Committee for Clinical Laboratory Standards 1993. Methods for dilution antimicrobial susceptibility tests for bacteria that grow aerobically, 3rd ed. Approved standard M7-A6; National Committee for Clinical laboratory standards, Wayne, Pa.) with slight modifications. Inocula of the microorganisms were diluted into Mueller-Hinton II (MH, cation adjusted) broth and compared with a 0.5 McFarland standard to give appr. 10^6 colony forming units (CFU)/mL. Aliquots (90 μl) of inoculate were added to 10 μl of MH broth+P-80 (Polysorbate 80, 0.002% final concentration) containing the peptide in serial two-fold dilutions. The following microorganisms were used to determine antibiotic selectivity of the peptides: Escherichia coli ATCC 25922, Klebsiella pneumoniae ATCC 13883 and Acinetobacter baumannii DSM 30008.

[3] = system: Acinetobacter baumannii DSM 30008; conditions: DSM 30008
Experimental: as §1, §2

[4] = system: Escherichia coli ATCC 25922; conditions: ATCC 25922
Experimental: as §1, §2

Klebsiella pneumoniae ATCC 13883 MIC [2]	Acinetobacter baumannii DSM 30008 MIC [3]	Escherichia coli ATCC 25922 MIC [4]	SMILES	Hemolysis at 100 μg/mL [1]
0.5 µg/mL	1 µg/mL	0.25 µg/mL	CC(C)(C)[C@@H]1NC(=O)[C@H](CCN)NC(=O)[C@H](Cc2c[nH]c3ccccc23)NC(=O)[C@H](CCN)NC(=O)[C@@H](CCN)NC(=O)[C@H](CCCN)NC(=O)[C@H](CCCNC(=N)N)NC(=O)[C@H](Cc2ccc(O)cc2)NC(=O)[C@@H]2CCNC(=O)C[C@H](NC1=O)C(=O)N[C@@H](CO)C(=O)N1CCC[C@@H]1C(=O)N1CCC[C@H]1C(=O)N[C@@H](Cc1ccccc1)C(=O)N2 [Example 13, cyclo(-Phe-Dab-Tyr-Arg-Orn-^DDab-Dab-Trp-Dab-tBuGly-Asp-Ser-^DPro-Pro-)] (HELM PEPTIDE1{F.[Dab].Y.R.[Orn].[NCC[C@@H](N[*:1])C(=O)[*:2]].[Dab].W.[Dab].[CC(C)(C)[C@H](N[*:1])C(=O)[*:2]].D.S.[dP].P}$PEPTIDE1,PEPTIDE1,2:R3-11:R3|PEPTIDE1,PEPTIDE1,1:R1-14:R2$$$V2.0)	1%
0.25 µg/mL	1 µg/mL	0.5 µg/mL	CC(C)[C@@H]1NC(=O)[C@@H]2CCCN2C(=O)[C@H]2CCN2C(=O)[C@H]([C@@H](C)O)NC(=O)[C@H](CO)NC(=O)[C@H](C(C)(C)C)NC(=O)[C@H](CCN)NC(=O)[C@H](Cc2c[nH]c3ccccc23)NC(=O)[C@H](CCN)NC(=O)[C@@H](CCN)NC(=O)[C@H](CN)NC(=O)[C@H](CCN)NC(=O)[C@H](Cc2ccc(O)cc2)NC(=O)[C@H](CN)NC1=O [Example 41, cyclo(-Val-Dap-Tyr-Dab-Dap-^DDab-Dab-Trp-Dab-tBuGly-Ser-Thr-^DAzt-Pro-)] (cyclo([Dab][Dap][dDab][Dab]W[Dab][Tle]ST[dAze]PV[Dap]Y))	1%
0.25 µg/mL	0.5 µg/mL	0.25 µg/mL	CC(C)(C)[C@@H]1NC(=O)[C@H](CCN)NC(=O)[C@H](Cc2c[nH]c3ccccc23)NC(=O)[C@H](CCN)NC(=O)[C@H](CCN)NC(=O)[C@H](CCN)NC(=O)[C@H](CCN)NC(=O)[C@H](Cc2ccc(O)cc2)NC(=O)[C@@H]2CCNC(=O)C[C@H](NC1=O)C(=O)N[C@@H](CO)C(=O)N1CC[C@@H]1C(=O)N1CCC[C@H]1C(=O)N[C@@H](Cc1c[nH]c3ccccc13)C(=O)N2 [Example 15, cyclo(-Trp-Dab-Tyr-Dab-Dab-Dab-Dab-Trp-Dab-tBuGly-Asp-Ser-^DAzt-Pro-)] (HELM PEPTIDE1{D.S.[O=C([C@H]1CCN1[*:1])[*:2]].P.W.[Dab].Y.[Dab].[Dab].[Dab].[Dab].W.[Dab].[CC(C)(C)[C@H](N[*:1])C(=O)[*:2]]}$PEPTIDE1,PEPTIDE1,1:R3-6:R3|PEPTIDE1,PEPTIDE1,1:R1-14:R2$$$V2.0)	1%
0.5 µg/mL	1 µg/mL	0.5 µg/mL	CC(C)C[C@@H]1NC(=O)[C@@H]2CCCN2C(=O)[C@H]2CCCN2C(=O)[C@H](CO)NC(=O)[C@@H]2CNC(=O)CC[C@H](NC1=O)C(=O)N[C@@H](Cc1ccc(O)cc1)C(=O)N[C@@H](CCN)C(=O)N[C@@H](CCCN)C(=O)N[C@H](CCN)C(=O)N[C@@H](CCN)C(=O)N[C@@H](Cc1c[nH]c3ccccc13)C(=O)N[C@@H](CCN)C(=O)N[C@@H](C(C)(C)C)C(=O)N2 [Example 34, cyclo(-Leu-Glu-Tyr-Dab-Orn-^DDab-Dab-Trp-Dab-tBuGly-Dap-Ser-^DPro-Pro-)] (cyclo(LEY[Dab][Orn][dDab][Dab]W[Dab][Tle][Dap]S[dP]P); lactam 2-11)	1%
0.5 µg/mL	3 µg/mL	2 µg/mL	CC(C)C[C@@H]1NC(=O)[C@@H]2CCCN2C(=O)[C@H]2CCCN2C(=O)[C@H](CO)NC(=O)[C@@H]2CNC(=O)CC[C@H](NC1=O)C(=O)N[C@@H](Cc1ccc(O)cc1)C(=O)N[C@@H](CCN)C(=O)N[C@@H](CCCN)C(=O)N[C@@H](CCN)C(=O)N[C@@H](CCN)C(=O)N[C@@H](Cc1c[nH]c3ccccc13)C(=O)N[C@@H](CCN)C(=O)N[C@@H](C(C)(C)C)C(=O)N2 [Example 18, cyclo(-Leu-Glu-Tyr-Dab-Orn-Dab-Dab-Trp-Dab-tBuGly-Dap-Ser-^DPro-Pro-)] (HELM PEPTIDE1{L.E.Y.[Dab].[Orn].[Dab].[Dab].W.[Dab].[CC(C)(C)[C@H](N[*:1])C(=O)[*:2]].[O=C([C@H](CN[*:3])N[*:1])[*:2]].S.[dP].P}$PEPTIDE1,PEPTIDE1,2:R3-11:R3|PEPTIDE1,PEPTIDE1,1:R1-14:R2$$$V2.0)	0%
2 µg/mL	1 µg/mL	1 µg/mL	CC(C)C[C@@H]1NC(=O)[C@@H]2CCCN2C(=O)[C@H]2CCCN2C(=O)[C@H](CO)NC(=O)[C@@H]2CCC(=O)NCC[C@H](NC1=O)C(=O)N[C@@H](Cc1ccc(O)cc1)C(=O)N[C@@H](CCN)C(=O)N[C@@H](CCCN)C(=O)N[C@H](CCN)C(=O)N[C@@H](CCN)C(=O)N[C@@H](Cc1c[nH]c3ccccc13)C(=O)N[C@@H](CCN)C(=O)N[C@@H](C(C)(C)C)C(=O)N2 [Example 30, cyclo(-Leu-Dab-Tyr-Dab-Orn-^DDab-Dab-Trp-Dab-tBuGly-Glu-Ser-^DPro-Pro-)] (HELM PEPTIDE1{L.[Dab].Y.[Dab].[Orn].[NCC[C@@H](N[*:1])C(=O)[*:2]].[Dab].W.[Dab].[CC(C)(C)[C@H](N[*:1])C(=O)[*:2]].E.S.[dP].P}$PEPTIDE1,PEPTIDE1,2:R3-11:R3|PEPTIDE1,PEPTIDE1,1:R1-14:R2$$$V2.0)	0.5%
0.5 µg/mL	1 µg/mL	0.5 µg/mL	CC(C)[C@@H]1NC(=O)[C@@H]2CCCN2C(=O)[C@H]2CCCN2C(=O)[C@H](CO)NC(=O)[C@@H]2CC(=O)NCC[C@H](NC1=O)C(=O)N[C@@H](Cc1ccc(O)cc1)C(=O)N[C@@H](CCN)C(=O)N[C@@H](CCN)C(=O)N[C@H](CCN)C(=O)N[C@@H](CCN)C(=O)N[C@@H](Cc1c[nH]c3ccccc13)C(=O)N[C@@H](CCN)C(=O)N[C@@H](c1ccccc1)C(=O)N2 [Example 16, cyclo(-Val-Dab-Tyr-Dab-Dab-^DDab-Dab-Trp-Dab-Phg-Asp-Ser-^DPro-Pro-)] (HELM PEPTIDE1{V.[Dab].Y.[Dab].[Dab].[NCC[C@@H](N[*:1])C(=O)[*:2]].[Dab].W.[Dab].[Phg].D.S.[dP].P}$PEPTIDE1,PEPTIDE1,2:R3-11:R3|PEPTIDE1,PEPTIDE1,1:R1-14:R2$$$V2.0)	1%
8 µg/mL	3 µg/mL	3 µg/mL	CC(C)C[C@@H]1NC(=O)[C@@H]2CCCN2C(=O)[C@H]2CCCN2C(=O)[C@H](CO)NC(=O)[C@@H]2CCNC(=O)CC[C@H](NC1=O)C(=O)N[C@@H](Cc1ccc(O)cc1)C(=O)N[C@@H](CCN)C(=O)N[C@@H](CCCN)C(=O)N[C@H](CCN)C(=O)N[C@@H](CCN)C(=O)N[C@@H](Cc1c[nH]c3ccccc13)C(=O)N[C@@H](CCN)C(=O)N[C@@H](C(C)(C)C)C(=O)N2 [Example 19, cyclo(-Leu-Glu-Tyr-Dab-Orn-^DDab-Dab-Trp-Dab-tBuGly-Dab-Ser-^DPro-Pro-)] (HELM PEPTIDE1{L.E.Y.[Dab].[Orn].[NCC[C@@H](N[*:1])C(=O)[*:2]].[Dab].W.[Dab].[CC(C)(C)[C@H](N[*:1])C(=O)[*:2]].[Dab].S.[dP].P}$PEPTIDE1,PEPTIDE1,2:R3-11:R3|PEPTIDE1,PEPTIDE1,1:R1-14:R2$$$V2.0)	0%
0.25 µg/mL	1 µg/mL	0.5 µg/mL	CC(C)[C@@H]1NC(=O)[C@@H]2CCCN2C(=O)[C@H]2CCN2C(=O)[C@H]([C@@H](C)O)NC(=O)[C@@H]2CC(=O)NCC[C@H](NC1=O)C(=O)N[C@@H](Cc1ccc(O)cc1)C(=O)N[C@@H](CCN)C(=O)N[C@@H](CN)C(=O)N[C@H](CCN)C(=O)N[C@@H](CCN)C(=O)N[C@@H](Cc1c[nH]c3ccccc13)C(=O)N[C@@H](CCN)C(=O)N[C@@H](C(C)(C)C)C(=O)N2 [Example 12, cyclo(-Val-Dab-Tyr-Dab-Dap-^DDab-Dab-Trp-Dab-tBuGly-Asp-Thr-^DAzt-Pro-)] (cyclo(DT[dAze]PV[Dab]Y[Dab][Dap][dDab][Dab]W[Dab][Tle]); lactam 1-6)	4%

SMILES	Klebsiella pneumoniae ATCC 13883 MIC [2]	Acinetobacter baumannii DSM 30008 MIC [3]	Escherichia coli ATCC 25922 MIC [4]	Hemolysis at 100 μg/mL [1]
CC(C)C[C@@H]1NC(=O)[C@H](CCCN)NC(=O)[C@H]2CCCN2C(=O)[C@H](C(C)C)NC(=O)[C@@H]2CSSC[C@H](NC1=O)C(=O)N[C@@H](Cc1ccc(O)cc1)C(=O)N[C@@H](C)C(=O)N[C@@H](CCCN)C(=O)N[C@H](CCN)C(=O)N[C@@H](CCN)C(=O)N[C@@H](Cc1c[nH]c3ccccc13)C(=O)N[C@@H](C)C(=O)N[C@@H](C(C)C)C(=O)N2 [Example 4, cyclo(-Leu-Cys-Tyr-Ala-Orn-^DDab-Dab-Trp-Ala-Val-Cys-Val-^DPro-Orn-)] (HELM PEPTIDE1{A.[Orn].[NCC[C@@H](N[*:1])C(=O)[*:2]].[Dab].W.A.V.C.V.[dP].[Orn].L.C.Y}$PEPTIDE1,PEPTIDE1,8:R3-13:R3|PEPTIDE1,PEPTIDE1,1:R1-14:R2$$$V2.0)	4 µg/mL	2 µg/mL	2 µg/mL	2.5%
